The text below walks through data of patent publication US5475007A, “1,2,3,4-tetrahydroquinoline-2,3,4-trione-3 or 4-oximes and the use thereof” (priority 1993, dated 1995).

Where two headings read alike, the source gives them in different places.

Series [1] has as its target glycine binding site of the NMDA receptor (Rattus norvegicus, UniProt P35439). Briefly: 1 μM glycine-stimulated [^3 H]-MK801 binding assay (glycine binding assay). The following applies: for potency relative to DCK: DCK = 5,7-dichlorokynurenic acid; for binding to the glycine receptor / selectivity for the glycine receptor: in words.
The nature of series [2]: mouse maximum electroshock seizure model (i.p.). It is filed as in vivo. The following applies: 70 mg/kg i.p. in DMSO, 1 hour before stimulus, 10 mice. As to the method:
5,7-Dichloro-1,2,3,4-tetrahydroquinoline-2,3,4-trione-3-oxime was evaluated for anticonvulsant activity after i.p. administration in the mouse maximum electroshock seizure model. Mice, 30-35 g (male) were injected i.p. with 70 mg/kg of the drug dissolved in DMSO (1 ul/g). Ten mice each were used in the drug and control groups. The control group was injected with an equal volume of DMSO. Seizures were elicited by stimulation with corneal electrodes. The stimulation parameters for eliciting the seizures were as follows: 50 mA, 60 pulses/second square wave, 0.8 ms pulse width, 0.2 sec length of stimulus. Under these conditions, 100% of control animals developed tonic hindlimb extension immediately after the corneal electrical stimulation. A Hugo Basile electroshock seizure stimulator was used for these experiments. The seizure stimulus was applied 1 hour after injection of the drug.

The conditions of series [3]: pigeons; cited from earlier work.
For series [4] the following is noted: in words; cited from earlier work.
For series [5] the following is noted: cited from earlier work; for PCP-like behavioral side effects: in words.
The conditions of series [6]: in words; cited from earlier work. This is another data set of the same source.
The subject of series [7] is glycine binding site of the NMDA receptor. The following applies: cited from earlier work.
The target in a further series is PCP receptor. The following applies: Wong et al. 1986; cited from earlier work.
The mark [8] stands for this setting: Table 1, glycine binding site, read-out: Ki Gly.

A word on the Ki: it is the dissociation constant of the complex between target and ligand, obtained from inhibition or displacement. As to `O=C1Nc2cc(Cl)cc(Cl)c2C(=O)C1=NO` [Compound 17b, 5,7-Dichloro-1,2,3,4-tetrahydroquinoline-2,3,4-trione-3-oxime], in series [1], the Ki was determined as 20 nM and the “potency relative to DCK” value is listed as 1126 % of DCK. For the same compound, in series [1] (Ki ratio versus 17a), the “times more active than the unsubstituted compound 17a” value was “about 1000 times”. Besides, the prevention of seizures result in series [2] is “prevented seizures from occurring in out of 10 animals”.
Turning to `CC(=O)ON=C1C(=O)Nc2cc(Cl)cc(Cl)c2C1=O` [Compound 18b, 5,7-Dichloro-1,2,3,4-tetrahydroquinoline-2,3,4-trione-3-acetyloxime], in series [1], the “potency relative to DCK” value is 142 % of DCK. Further, the Ki in series [1] (setting [8]) was 150 nM; in series [1] (glycine/NMDA receptor, read-out: Ki value), 160 nM.
Consider `O=C1Nc2cc(Cl)c(Cl)cc2C(=O)C1=NO` [Compound 17c, 6,7-Dichloro-1,2,3,4-tetrahydroquinoline-2,3,4-trione-3-oxime], for which, in series [1], the Ki was 50 nM and the “potency relative to DCK” value is listed as 439 % of DCK.
Turning to `c1ccc(C2(N3CCCCC3)CCCCC2)cc1` [PCP, phencyclidine], the katalepsy result in series [3] was “characteristic katalepsy in pigeons”. In series [4], the neuroprotective efficacy result was “neuroprotective efficacy both in vitro and in vivo”. In series [5] (rodents), the “behavioral excitation (hyperlocomotion)” value is given as “behavioral excitation”.
Turning to `O=C1Nc2cc(Cl)c(Cl)c(Cl)c2C(=O)C1=NO` [Compound 17e, 5,6,7-Trichloro-1,2,3,4-tetrahydroquinoline-2,3,4-trione-3-oxime], in series [1], the Ki stood at 50 nM and the “potency relative to DCK” value is “about 400 % of DCK”.
Consider `O=C1Nc2ccccc2C(=O)C1=NO` [Compound 17a, 1,2,3,4-Tetrahydroquinoline-2,3,4-trione-3-oxime], for which, in series [1], affinity was put at a Ki of 20000 nM, the “potency relative to DCK” value is given as 1.3 % of DCK, the “binding to the glycine receptor” value was “high binding” and the “selectivity for the glycine receptor” value is recorded as “highly selective”.
With `NC1CCN(O)C1=O` (racemic) [HA-966], the “penetration of the blood/brain barrier” value in series [6] is reported as “sufficiently penetrates the blood/brain barrier”. Also, in series [7] (in words), the “agonism and affinity at the glycine binding site” value is “partial agonist with micromolar affinity for the glycine binding site”.
Usually IC50 stands for the concentration that gives 50% inhibition. Lower therefore signals higher potency. In the case of `O=C1Nc2ccccc2C(=NO)C1=O` [Compound 14a, 1,2,3,4-Tetrahydroquinoline-2,3,4-trione-4-oxime], the IC50 in series [1] (1 μM glycine) came out at 18400 nM. In series [1], the “potency relative to DCK” value is 14 % of DCK, the “binding to the glycine receptor” value is “high binding” and the “selectivity for the glycine receptor” value is on record as “highly selective”. Also, the Ki in series [1] (setting [8]) is 1700 nM.
With `NCC(=O)O` [glycine], the Kd in series [7] (used in Cheng and Prusoff equation, read-out: known affinity of glycine for the glycine binding site) was 100 nM.
Consider `COc1ccc2c(c1)[C@]13CCCC[C@@H]1[C@H](C2)N(C)CC3` [dextromethorphan], for which the neuroprotective efficacy result in series [4] is “neuroprotective efficacy both in vitro and in vivo”.
On to `O=C(O)c1cc(O)c2ccc(Cl)cc2n1` [7-Cl-kynurenic acid], for which the “penetration of the blood/brain barrier” value in series [6] is listed as “cannot penetrate the blood/brain barrier”. The “receptor binding affinity in vitro” value in series [7] (in words) is “relatively high receptor binding affinity in vitro”.
On to `O=C(O)[C@@H]1C[C@H](CP(=O)(O)O)CCN1` [CGS 19755], for which, in series [4], the neuroprotective efficacy result is “have neuroprotective efficacy”. In addition, in series [5], the “PCP-like behavioral side effects” value was “adverse PCP-like behavioral side effects”.
`O=C(O)c1cc(O)c2c(Cl)cc(Cl)cc2n1` [5,7-dichlorokynurenic acid]: the “receptor binding affinity in vitro” value in series [7] (in words) is given as “relatively high receptor binding affinity in vitro”.
With `O=C1Nc2ccc(Cl)c(Cl)c2C(=O)C1=NO` [Compound 17d, 5,6-Dichloro-1,2,3,4-tetrahydroquinoline-2,3,4-trione-3-oxime], in series [1], the affinity, expressed as Ki, was 360 nM and the “potency relative to DCK” value is “about 55 % of DCK”.
Consider `O=C(O)c1cc2ccccc2[nH]1` [indole-2-carboxylic acid], for which, in series [6], the “penetration of the blood/brain barrier” value is “cannot penetrate the blood/brain barrier”. Also, the “receptor binding affinity in vitro” value in series [7] (in words) was “relatively high receptor binding affinity in vitro”.
As for `CNC1(c2ccccc2Cl)CCCCC1=O` (centres unmarked) [ketamine], the neuroprotective efficacy entry in series [4] is “neuroprotective efficacy both in vitro and in vivo”.
As to `C[C@]12N[C@H](Cc3ccccc31)c1ccccc12` [MK-801], at PCP receptor, the Kd was around 3 nM. The neuroprotective efficacy result in series [4] was “neuroprotective efficacy both in vitro and in vivo”. In addition, the “PCP-like behavioral side effects” value in series [5] is reported as “adverse PCP-like behavioral side effects”.
`O=C(O)[C@@H]1C[C@H]2C[C@@H](CP(=O)(O)O)CC[C@H]2CN1` [LY274614]: the neuroprotective efficacy result in series [4] is given as “have neuroprotective efficacy”.
